For series [1], the target named is T1, solitary ECF module co-reconstituted with solitary FolT1 (Lactobacillus delbrueckii, UniProt Q1G930).
T1 construct: gene Ldb1624; FolT1 with N-terminal His8 tag from L. lactis NZ9000; ECF module from E. coli, tag removed by TEV; co-reconstituted into proteoliposomes; Energy-coupling factor transporter transmembrane protein EcfT
Briefly: radiolabelled folate uptake into proteoliposomes. It counts as biochemical. As to conditions: 100 nM folate, 5 mM lumenal Mg-ATP, 50 mM KPi pH 7.5, 30 °C; labelled compound.

The target in series [2] is T2, ECF-FolT2 (Lactobacillus delbrueckii, UniProt Q1G929+Q1GBI9+Q1GBJ0).
T2 construct: gene ecfA1; full complex EcfA-EcfA'-EcfT-FolT2, ~115 kDa; N-terminal His10-TEV tag, C-terminal StrepII tag on FolT2; expressed in E. coli MC1061; MSP2N2 lipid nanodiscs; with Energy-coupling factor transporter transmembrane protein EcfT
Nature of the series: cryo-EM structure, […] Å. The format is binding. Particulars: lipid nanodiscs.

Another series addresses T3, solitary ECF module (Lactobacillus delbrueckii, UniProt Q1GBI9+Q1GBJ0).
T3 construct: gene ecfA1; EcfA-EcfA'-EcfT without S-component, ~92 kDa; N-terminal His10-TEV tag removed; expressed in E. coli MC1061; MSP2N2 lipid nanodiscs; with Energy-coupling factor transporter transmembrane protein EcfT
Briefly: cryo-EM structure, […] Å. The format is binding. As to conditions: Mg-ATP in both nucleotide sites, closed ATPase dimer; lipid nanodiscs; catalytically inactive double mutant 2EQcryo.

Series [3] deals with T2, ECF-FolT2. Nature of the series: cryo-EM structure, […] Å. It counts as binding. Particulars: 5 mM Mg-AMP-PNP, 10 µM folate, 37 °C; both nucleotide sites; lipid nanodiscs.
Substrate in series [4]: Nc1ncnc2c1ncn2[C@@H]1O[C@H](COP(=O)(O)OP(=O)(O)OP(=O)(O)O)[C@@H](O)[C@H]1O
Briefly: enzyme-coupled (PK/LDH) spectrophotometric ATPase assay. It counts as biochemical, Lactobacillus delbrueckii. Particulars: Mg-ATP 0-0.5 mM, 20 mM Tris pH 8.0, 150 mM NaCl, 37 °C, lipid nanodiscs.

The source of these data is PMC10368641, “Expulsion mechanism of the substrate-translocating subunit in ECF transporters” (Nature Communications, 2023).

T2 sequence (Q1GBI8 entry or part of it, one chain of several, further chain): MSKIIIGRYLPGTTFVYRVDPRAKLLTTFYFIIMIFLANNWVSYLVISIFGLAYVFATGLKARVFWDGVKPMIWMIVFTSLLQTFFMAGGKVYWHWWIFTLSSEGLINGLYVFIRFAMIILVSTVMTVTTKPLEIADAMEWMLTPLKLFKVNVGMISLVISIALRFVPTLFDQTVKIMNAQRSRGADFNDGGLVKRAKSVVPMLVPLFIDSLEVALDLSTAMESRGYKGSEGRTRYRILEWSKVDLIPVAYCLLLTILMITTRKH
T2 sequence (Q1G929 entry or part of it, one chain of several): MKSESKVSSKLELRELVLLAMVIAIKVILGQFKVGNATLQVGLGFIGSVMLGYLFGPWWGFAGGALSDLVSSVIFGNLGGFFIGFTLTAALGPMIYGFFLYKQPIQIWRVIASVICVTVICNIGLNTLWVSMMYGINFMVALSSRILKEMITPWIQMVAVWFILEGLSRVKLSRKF
T1 sequence (Q1GBI8 entry or part of it, one chain of several): as the sequence (Q1GBI8 entry or part of it, one chain of several, further chain) above
T1 sequence (Q1GBJ0 whole entry, one chain of several, further chain): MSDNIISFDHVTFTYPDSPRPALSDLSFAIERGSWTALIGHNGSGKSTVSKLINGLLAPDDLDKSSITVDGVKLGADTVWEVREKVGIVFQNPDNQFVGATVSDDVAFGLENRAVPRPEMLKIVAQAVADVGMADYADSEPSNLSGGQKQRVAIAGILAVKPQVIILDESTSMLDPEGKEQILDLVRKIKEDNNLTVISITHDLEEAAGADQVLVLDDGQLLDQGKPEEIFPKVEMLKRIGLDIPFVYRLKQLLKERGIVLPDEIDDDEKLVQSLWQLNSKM
T1 sequence (Q1G930 entry or part of it, one chain of several): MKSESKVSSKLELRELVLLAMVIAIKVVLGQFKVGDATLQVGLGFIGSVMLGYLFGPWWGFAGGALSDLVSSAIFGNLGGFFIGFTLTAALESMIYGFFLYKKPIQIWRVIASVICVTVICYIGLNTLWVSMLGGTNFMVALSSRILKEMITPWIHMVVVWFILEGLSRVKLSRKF
T3 sequence (Q1GBI8 entry or part of it, one chain of several, further chain): as the sequence (Q1GBI8 entry or part of it, one chain of several, further chain) above

With `Nc1nc2ncc(CNc3ccc(C(=O)N[C@@H](CCC(=O)O)C(=O)O)cc3)nc2c(=O)[nH]1` [folate], in series [1], the “radiolabelled folate uptake into proteoliposomes” value is recorded as “Uptake of folate into the proteoliposome lumen only occurred in the presence of lumenal Mg-ATP”.

Consider `Nc1ncnc2c1ncn2[C@@H]1O[C@H](COP(=O)(O)OP(=O)(O)O)[C@@H](O)[C@H]1O` [ADP], for which, on ECF-FolT2 [2] (5 mM Mg-ATP added, site in EcfA'), the “cryo-EM structure, 3.2 Å” value is “ADP is bound exclusively by residues from the EcfA’ subunit”.

Take `Nc1ncnc2c1ncn2[C@@H]1O[C@H](COP(=O)(O)OP(=O)(O)OP(=O)(O)O)[C@@H](O)[C@H]1O` [ATP]: on ECF-FolT2 [2] (5 mM Mg-ATP, 10 µM folate, 37 °C, site in EcfA, adenine between EcfA Phe13 and FolT2 Arg174), the “cryo-EM structure, 3.2 Å” value was “ATP and ADP bound to the EcfA and EcfA’ subunits, respectively”. Further, on solitary ECF module, the “cryo-EM structure, 2.6 Å” value is “In both ATPase subunits, Mg-ATP is now bound and engaged with the signature motif”.

With `Nc1ncnc2c1ncn2[C@@H]1O[C@H](COP(=O)(O)OP(=O)(O)NP(=O)(O)O)[C@@H](O)[C@H]1O` [AMP-PNP], the “cryo-EM structure, 3.6 Å” value at ECF-FolT2 [3] is recorded as “with AMP-PNP bound to both nucleotide-binding sites”.

B1: solitary ECF module (Lactobacillus delbrueckii subsp. bulgaricus ATCC 11842 = JCM 1002) (protein)
chain 1: SDNIISFDHVTFTYPDSPRPALSDLSFAIERGSWTALIGHNGSGKSTVSKLINGLLAPDDLDKSSITVDGVKLGADTVWEVREKVGIVFQNPDNQFVGATVSDDVAFGLENRAVPRPEMLKIVAQAVADVGMADYADSEPSNLSGGQKQRVAIAGILAVKPQVIILDESTSMLDPEGKEQILDLVRKIKEDNNLTVISITHDLEEAAGADQVLVLDDGQLLDQGKPEEIFPKVEMLKRIGLDIPFVYRLKQLLKERGIVLPDEIDDDEKLVQSLWQLNSKM
chain 2: MAIKFENVSYVYSPGSPLEAIGLDQLNFSLEEGKFIALVGHTGSGKSTLMQHFNALLKPTSGKIEIAGYTITPETGNKGLKDLRRKVSLAFQFSEAQLFENTVLKDVEYGPRNFGFSEDEAREAALKWLKKVGLKDDLIEHSPFDLSGGQMRRVALAGVLAYEPEIICLDEPAAGLDPMGRLEMMQLFKDYQAAGHTVILVTHNMDDVADYADDVLALEHGRLIKHASPKEVFKDSEWLQKHHLAEPRSARFAAKLEAAGLKLPGQPLTMPELADAIKQSLKGGEHE
notes: EcfA-EcfA'-EcfT without S-component, ~92 kDa; N-terminal His10-TEV tag removed; expressed in E. coli MC1061; MSP2N2 lipid nanodiscs; with Energy-coupling factor transporter transmembrane protein EcfT
By Km is commonly meant the substrate concentration at which the rate is half of its maximum. On to B1, for which the Michaelis constant (Km) in series [4] is given as 136.2 µM.
